Experimental data: article PMC4503722, “Novel Phenotypic Outcomes Identified for a Public Collection of Approved Drugs from a Publicly Accessible Panel of Assays” (PLoS ONE, 2015)
Read-outs that look alike come from different tables or passages of the source.

Assays:
Assay in all cases: cells
DLD-1 = type: cell-based
[1] = test system: nuclear β-catenin in C2C12 cells; type: cell-based
SW480 = type: cell-based
[2] = test system: HCT116 cells treated with a GSK3β inhibitor; type: cell-based
INS-1E cells = type: cell-based, rat
HeLa cells = type: cell-based; conditions: for EC50: read-out: CellCycle G2/M
NCI-H716 cells = type: cell-based, Human
HCT116 = type: cell-based
[3] = test system: endothelial tube formation in co-cultures of ECFCs and ADSCs treated with VEGF; type: cell-based, human
[4] = Homo sapiens, DLD-1, 72 h, Table 2, 72 h, Cell TiterGlo, non-adherent, 20 coded, read-out: DLD-1 viab. IC50
[5] = Homo sapiens, DLD-1, basal, read-out: Basal_Viability ATP DLD-1
[6] = Mus musculus, C2C12, Table 2, C2C12, […], 20 / 20.1 coded, read-out: Wnt pot. EC50
[7] = Homo sapiens, SW480, 72 h, Table 2, 72 h, Cell TiterGlo, non-adherent, 20 coded, read-out: SW480 viab. IC50
[8] = Homo sapiens, SW480, basal, read-out: Basal_Viability ATP SW480
[9] = Homo sapiens, HCT-116, read-out: HCT-116 (GSK3β) viab. IC50, Table 2, GSK3β inhibitor LY2090314 20 nM, 72 h, Cell TiterGlo, 20 coded
[10] = Homo sapiens, HCT-116, GSK3b inhibitor pretreated, read-out: GSK3b inh pretreated_Viability ATP HCT116
[11] = Rattus norvegicus, INS-1E; read-out: Ins. sec. EC50
[12] = Homo sapiens, HeLa, IC50 / EC50, HeLa
[13] = Homo sapiens, NCI-H716; read-out: GLP1 sec. EC50
[14] = Homo sapiens, HCT-116, 72 h, read-out: HCT-116 viab. IC50, Table 2, basal, 72 h, Cell TiterGlo, non-adherent, 20 coded
[15] = Homo sapiens, HCT-116, basal, read-out: Basal_Viability ATP HCT116
[16] = Homo sapiens, read-out: Anti-Angiogenesis
[17] = Mus musculus, C2C12, IC50 / EC50, C2C12 beta-catenin translocation, read-out: Wnt Pathway
[18] = Homo sapiens, HCT-116, read-out: GSK3b inh pretreated_Viability ATP HCT116
[19] = Rattus norvegicus; IC50 / EC50; INS-1E; read-out: Insulin Secretion
[20] = Homo sapiens; IC50 / EC50; NCI-H716; read-out: GLP 1 Secretion
[21] = Homo sapiens, IC50 / EC50; endothelial tube area, ADSC/ECFC co-culture; read-out: Anti-Angiogenesis
[22] = Homo sapiens, SW480, basal, SW480, read-out: Basal_Viability ATP SW480
[23] = Homo sapiens, HCT-116, HCT116 pretreated with GSK3b inhibitor, read-out: GSK3b inh pretreated_Viability ATP HCT116
[24] = Homo sapiens, HeLa, S2 Table, HeLa, 20 = no response at highest concentration
[25] = Homo sapiens; read-out: Anti-Angiogenesis
[26] = Rattus norvegicus, INS-1E; read-out: Insulin Secretion

Compound: CCN(CC)CCNC(=O)c1c(C)[nH]c(/C=C2\C(=O)Nc3ccc(F)cc32)c1C [sunitinib, reference compound]
- IC50 (DLD-1; [4]): 1.6 µM
- IC50 (DLD-1; [5]): 1.63 µM
- EC50 [1, 6]: > 10 µM
- IC50 (SW480; [7]): 2.8 µM
- IC50 (SW480; [8]): 2.76 µM
- IC50 [2, 9]: 0.36 µM
- IC50 [2, 10]: 0.361 µM
- EC50 (INS-1E cells; [11]): > 20 µM
- EC50 (HeLa cells; [12]): > 10 µM
- EC50 (NCI-H716 cells; [13]): > 10 µM
- IC50 (HCT116; [14]): 2.3 µM
- IC50 (HCT116; [15]): 2.31 µM
- IC50 ([3]; Homo sapiens, read-out: Anti-Angio IC50): 0.025 µM
- IC50 [3, 16]: 0.0254 µM

Compound: CN1CC[C@H](c2c(O)cc(O)c3c(=O)cc(-c4ccccc4Cl)oc23)[C@H](O)C1 [Flavopiridol]
- IC50 (DLD-1; [5]): 0.0684 µM
- EC50 [1, 17]: 0.191 µM
- IC50 (SW480; [8]): 2.11 µM
- IC50 [2, 18]: 0.297 µM
- EC50 (INS-1E cells; [19]): > 10 µM
- EC50 (HeLa cells; [12]): > 10 µM
- EC50 (NCI-H716 cells; [20]): > 10 µM
- IC50 (HCT116; [15]): 16.7 µM
- IC50 [3, 21]: 0.114 µM

Compound: Clc1ccc(Nc2nnc(Cc3ccncc3)c3ccccc23)cc1 [vatalanib, reference compound]
- IC50 (DLD-1; [4]): > 20 µM
- activity in the Wnt potentiation module (in words) [1]: None of these agents, however, possessed appreciable activity
- EC50 [1, 6]: > 10 µM
- IC50 (SW480; [7]): 19.5 µM
- IC50 (SW480; [22]): 19.5 µM
- IC50 [2, 9]: 10.5 µM
- IC50 [2, 23]: 10.5 µM
- EC50 (INS-1E cells; [11]): > 10 µM
- G2/M IC50 / EC50 (HeLa cells): 20 (values shown as 20 indicate that the compound was tested in concentration-response and showed no response at the highest concentration tested (e.g. IC50 > 20 μM))
- EC50 (HeLa cells; [24]): > 10 µM
- EC50 (NCI-H716 cells; [13]): > 10 µM
- IC50 (HCT116; [14]): > 20 µM
- IC50 ([3]; Homo sapiens; read-out: Anti-Angio IC50): 0.11 µM
- IC50 [3, 25]: 0.111 µM

Compound: Cc1ccc(S(=O)(=O)NC(=O)NN2CC3CCCC3C2)cc1 (stereo not drawn) [gliclazide, reference compound]
- IC50 (DLD-1; [4]): > 20 µM
- EC50 [1, 6]: > 10 µM
- IC50 (SW480; [7]): > 20 µM
- IC50 [2, 9]: > 20 µM
- EC50 (INS-1E cells; [11]): 1.8 µM
- EC50 (INS-1E cells; [26]): 1.83 µM
- G2/M IC50 / EC50 (HeLa cells): 20 (values shown as 20 indicate that the compound was tested in concentration-response and showed no response at the highest concentration tested (e.g. IC50 > 20 μM))
- EC50 (HeLa cells; [24]): > 10 µM
- EC50 (NCI-H716 cells; [13]): > 10 µM
- IC50 (HCT116; [14]): > 20 µM
- IC50 ([3]; Homo sapiens, Table 2; primary assay tube area; 20 = no response in concentration-response, 20.1 = inactive in single concentration testing; read-out: Anti-Angio IC50): > 10 µM

Compound: CO[C@@H]1[C@@H](OC)[C@H](C)[C@@](O)(CC(=O)O)O[C@H]1[C@H](C)[C@H]1O[C@@]2(CC[C@@](C)([C@H]3CC[C@@](C)([C@@H]4O[C@@H]([C@H]5O[C@](C)(O)[C@H](C)C[C@@H]5C)C[C@@H]4O[C@@H]4C[C@H](OC)[C@@H](OC)[C@H](C)O4)O3)O2)C[C@H](O)[C@H]1C [Maduramicin ammonium]
- IC50 (DLD-1; [5]): 1.08 µM
- EC50 [1, 17]: > 10 µM
- IC50 (SW480; [8]): 1.45 µM
- IC50 [2, 10]: 1.16 µM
- EC50 (INS-1E cells; [19]): > 10 µM
- EC50 (HeLa cells; [12]): > 10 µM
- EC50 (NCI-H716 cells; [20]): > 10 µM
- IC50 (HCT116; [15]): 8.6 µM
- IC50 [3, 21]: 0.252 µM

Compound: CC[C@H](C)C(=O)O[C@H]1C[C@@H](C)C=C2C=C[C@H](C)[C@H](CC[C@@H]3C[C@@H](O)CC(=O)O3)[C@H]21 [lovastatin, reference compound]
- IC50 (DLD-1; Homo sapiens, DLD-1, read-out: Basal_Viability ATP DLD-1): 19.2 µM
- EC50 ([1]; Mus musculus, C2C12, read-out: Wnt Pathway): > 10 µM
- IC50 (SW480; Homo sapiens, SW480, read-out: Basal_Viability ATP SW480): 4.73 µM
- IC50 [2, 18]: 7.36 µM
- EC50 (INS-1E cells; Rattus norvegicus, INS-1E, read-out: Insulin Secretion): > 10 µM
- EC50 (HeLa cells; Homo sapiens, HeLa): > 10 µM
- EC50 (NCI-H716 cells; Homo sapiens, NCI-H716, read-out: GLP 1 Secretion): > 20 µM
- IC50 (HCT116; Homo sapiens, HCT-116, read-out: Basal_Viability ATP HCT116): 1.75 µM
- IC50 [3, 16]: 3.27 µM

Compound: CC(=O)Oc1ccccc1C(=O)Nc1ncc([N+](=O)[O-])s1 [nitazoxanide]
- IC50 (DLD-1; Homo sapiens, DLD-1, basal, DLD-1, read-out: Basal_Viability ATP DLD-1): 3.09 µM
- EC50 ([1]; Mus musculus, C2C12, S2 Table, module primary assay, 20 / 20.1 codes per legend, read-out: Wnt Pathway): > 10 µM
- IC50 (SW480; [22]): 3.03 µM
- IC50 [2, 23]: 2.46 µM
- EC50 (INS-1E cells; [26]): > 10 µM
- EC50 (HeLa cells; [24]): > 10 µM
- EC50 (NCI-H716 cells; Homo sapiens, NCI-H716; read-out: GLP 1 Secretion): > 10 µM
- IC50 (HCT116; Homo sapiens, HCT-116, basal, HCT116, read-out: Basal_Viability ATP HCT116): 2.81 µM
- IC50 [3, 25]: 2.06 µM

Compound: CCOc1ccc2nc3cc(N)ccc3c(N)c2c1 [Acrinol]
- IC50 (DLD-1; read-out: Basal_Viability ATP DLD-1): > 20 µM
- EC50 ([1]; read-out: Wnt Pathway): > 10 µM
- IC50 (SW480; read-out: Basal_Viability ATP SW480): 3.23 µM
- IC50 ([2]; read-out: GSK3b inh pretreated_Viability ATP HCT116): 5.92 µM
- EC50 (INS-1E cells; read-out: Insulin Secretion): > 10 µM
- EC50 (HeLa cells): > 10 µM
- EC50 (NCI-H716 cells; read-out: GLP 1 Secretion): > 10 µM
- IC50 (HCT116; read-out: Basal_Viability ATP HCT116): 15.7 µM
- IC50 ([3]; read-out: Anti-Angiogenesis): 4.94 µM
